Laboratory results as given in PMC9551036, “A selective and orally bioavailable VHL-recruiting PROTAC achieves SMARCA2 degradation in vivo” (Nature Communications, 2022).
Values joined by “and” are separate entries in the source; they are usually repeats but may differ in a detail not shown here. Identical values can stand only once.

Experiments:
[1] = Cell viability assay (CellTiter Glo) in NCI-H1568; assay type: cell-based, human; conditions: human, NCI-H1568 cells, NCI-H1568; log10 conc -5.90309 mol/l;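 note: percent of DMSO-treated control cells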
Method in brief: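 NCI-H1568 cells, 500–2000 per well, were plated in 180–200 µl of medium in white 96-well plates with clear bottoms (Corning or Perkin Elmer). One day later a digital dispenser added the compounds, and a T0 reference sample was read. Viability was then determined by luminescence with CellTiter Glo or CellTiter Glo 2.0 (Promega).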

[2] = tested on: proteome of NCI-H1568 cells; experiment: Whole cell unbiased proteomics (TMT) in NCI-H1568 cells; assay type: cell-based, human; conditions: for Rel. Int.: TMT reporter intensity relative to DMSO 1; for Rel. Int. / Normalised: replicates 1-3; for average: average of normalised replicates; for log2: log2 fold change vs DMSO; for Normalised: normalised relative intensity
Description: Cells were seeded at 5 × 10^6 cells on a 100 mm plate 24 h before treatment. Cells were treated in triplicate by addition of test compounds at 100 nM. After 4 h, the cells were washed twice with 10 ml cold PBS and lysed in 500 µL of 100 mM TEAB with 5% (w/v) SDS. The lysate was pulse sonicated briefly and then centrifuged at 15,000 × g for 10 min. Samples were quantified using a micro-BCA protein assay kit (Thermo Fisher Scientific). 300 µg of each sample was reduced with DTT, alkalised with iodoacetamide and double-digested with trypsin using the modified S-TRAP mini (ProtiFi) protocol. Peptide quantification was done using Pierce™ Quantitative Fluorometric Peptide Assay and equal amount from each sample was labelled using TMTpro^TM 16plex Label Reagent Set (Thermo Fisher Scientific) as per the manufacturer’s instructions. The samples were then pooled and desalted using a 7 mm, 3 mL C18 SPE cartridge column (Empore, 3 M). The pooled and desalted sample was fractionated using high pH reverse-phase chromatography on an XBridge peptide BEH column (130 Å, 3.5 μm, 2.1 × 150 mm, Waters) on an Ultimate 3000 HPLC system (Thermo Scientific/Dionex). Buffers A (10 mM ammonium formate in water, pH 9) and B (10 mM ammonium formate in 90% acetonitrile, pH 9) were used over a linear gradient of 2% to 100% buffer B over 80 min at a flow rate of 200 μL/min. 80 fractions were collected using a WPS-3000 FC auto-sampler (Thermo Scientific) before concatenation into 20 fractions based on the UV signal of each fraction. All the fractions were dried in a Genevac EZ-2 concentrator and resuspended in 1% formic acid for MS analysis. The fractions were analysed sequentially on a Q Exactive HF Hybrid Quadrupole-Orbitrap Mass Spectrometer (Thermo Scientific) coupled to an Dionex Ultimate 3000 RS (Thermo Scientific). […] The column temperature was 50 °C. The mass spectrometer was operated in data dependent mode with a single MS survey scan from 335 to 1600 m/z followed by 15 sequential m/z dependent MS2 scans. The 15 most intense precursor ions were sequentially fragmented by higher energy collision dissociation (HCD). The MS1 isolation window was set to 0.7 m/z and the resolution set at 120,000. MS2 resolution was set at 60,000. The AGC targets for MS1 and MS2 were set at 3 × 10^6 ions and 1 × 10^5 ions, respectively. The normalised collision energy was set at 32%. The maximum ion injection times for MS1 and MS2 were set at 50 ms and 200 ms, respectively. The mass accuracy was checked before the initiation of sample analysis. The raw MS data files for all 20 fractions were merged and searched against the Uniprot-sprot-Human-Canonical database (FASTA file released in November 2019) by Maxquant software 2.0.3.0 for protein identification and TMT reporter ion quantitation. The Maxquant parameters were set as follows: enzyme used Trypsin/P; maximum number of missed cleavages equal to two; precursor mass tolerance equal to 10 p.p.m.; fragment mass tolerance equal to 20 p.p.m.; variable modifications: oxidation (M), dioxidation (MW), acetyl (N-term), deamidation (NQ), Gln -> pyro-Glu (Q N-term); fixed modifications: carbamidomethyl (C). Peptide and protein data was filtered by applying a 1% false discovery rate followed by exclusion of proteins with less than two unique peptides. Quantified proteins were filtered if the absolute fold-change difference between the three DMSO replicates was ≥1.5.

[3] = Body weight / tolerability in xenograft studies; assay type: in vivo, mouse
Description: To establish subcutaneous tumours, mice were injected with 5 × 10^6 NCI-H1568 in PBS with 5% FCS or with 1 × 10^7 A549 cells in PBS with 5% FCS. Tumour diameters were measured with a caliper three times a week. The volume of each tumour (in mm^3) was calculated according to the formula [tumour volume = length × diameter^2 × π/6]. To monitor side effects of treatment, mice were inspected daily for abnormalities and body weight was determined daily after the start of treatment. Animals were sacrificed when the tumours reached a size of 1500 mm^3. Mice were randomised into treatment groups when the average tumour size reached ~210–220 mm^3. Group sizes were calculated individually for each tumour model based on tumour growth during model establishment experiments. A power analysis was performed using a sample size calculator (https://www.stat.ubc.ca/~rollin/stats/ssize/n2.html). For both models used in the study, 10 mice per group were used for each experiment. All administrations were dosed with 10 ml/kg (s.c. and oral). Control mice were dosed subcutaneously with 10% HP-β-CD in 50% Ringer solution and orally with 15% HP-β-CD, that means the control mouse treatment was corresponding to the solvent of the compounds. Compound 6 was dosed subcutaneously either in a d1-4 q3d, d6-8 q2d, d11-13 q2d treatment (Treatment 1) or a q3 or 4d treatment (Treatment 2).

[4] = protein SIK1 (LOC102724428;SIK1)

SMILES: Cc1ncsc1-c1ccc(C(CCC(C)CCN2CCC(c3ccc4c(c3)n(C3CCCC3)c3nc(=O)c5c(Br)cccc5n43)CC2)NC(=O)C2CC(O)CN2C(=O)C(NC(=O)C2(F)CC2)C(C)(C)C)cc1 (stereo not drawn) [ACBI2]
- viability at 1.25 µM [1]: 0.898%
- -logP [2]: 4.42
- Rel. Int. ([2]; protein BRPF1 (P55201)): 0.86 and 0.73 and 0.58
- average ([2]; protein BRPF1 (P55201)): 0.72
- log2 ([2]; protein BRPF1 (P55201)): -0.46
- Normalised ([2]; protein BRPF1 (P55201)): 0.74 and 0.73 and 0.70
- Rel. Int. ([2]; protein ETS1 (P14921)): 1.29 and 1.11 and 0.95
- average ([2]; protein ETS1 (P14921)): 1.13
- log2 ([2]; protein ETS1 (P14921)): 0.17
- Normalised ([2]; protein ETS1 (P14921)): 1.12 (2×) and 1.14
- Rel. Int. ([2]; protein PBRM1 (Q86U86)): 0.41 and 0.40 and 0.32
- average ([2]; protein PBRM1 (Q86U86)): 0.38
- log2 ([2]; protein PBRM1 (Q86U86)): -1.40
- Normalised ([2]; protein PBRM1 (Q86U86)): 0.36 and 0.40 and 0.39
- Rel. Int. [2, 4]: 1.44 and 1.21 and 1.03
- average [2, 4]: 1.24
- log2 [2, 4]: 0.30
- Normalised [2, 4]: 1.25 and 1.21 and 1.24
- Rel. Int. ([2]; protein SMARCA2 (P51531)): 0.52 and 0.45 and 0.40
- average ([2]; protein SMARCA2 (P51531)): 0.46
- log2 ([2]; protein SMARCA2 (P51531)): -1.12
- Normalised ([2]; protein SMARCA2 (P51531)): 0.45 and 0.46 and 0.48
- tolerability ([3]; A549 xenograft, 80 mg/kg p.o. once daily): well tolerated

SMILES: Cc1ncsc1-c1ccc([C@H](CCCCCN2CCC(c3ccc4c(c3)n(C3CCCC3)c3nc(=O)c5c(Br)cccc5n43)CC2)NC(=O)[C@@H]2C[C@@H](O)CN2C(=O)[C@@H](NC(=O)C2(F)CC2)C(C)(C)C)cc1 [compound 11]
- tolerability ([3]; NCI-H1568 xenograft efficacy study, body weight changes): well tolerated

SMILES: Cc1ncsc1-c1ccc([C@H](CC[C@H](C)CCN2CCC(c3ccc4c(c3)n(C3CCCC3)c3nc(=O)c5c(Br)cccc5n43)CC2)NC(=O)[C@@H]2C[C@H](O)CN2C(=O)[C@@H](NC(=O)C2(F)CC2)C(C)(C)C)cc1 [compound 12]
- -logP [2]: 0.0276
- Rel. Int. ([2]; protein BRPF1 (P55201)): 0.90 and 0.91 (2×)
- average ([2]; protein BRPF1 (P55201)): 0.99
- log2 ([2]; protein BRPF1 (P55201)): -0.0113
- Normalised ([2]; protein BRPF1 (P55201)): 0.98 (2×) and 1.02
- Rel. Int. ([2]; protein ETS1 (P14921)): 0.94 and 0.98 and 0.91
- average ([2]; protein ETS1 (P14921)): 1.03
- log2 ([2]; protein ETS1 (P14921)): 0.05
- Normalised ([2]; protein ETS1 (P14921)): 1.04 and 1.05 and 1.02
- Rel. Int. ([2]; protein PBRM1 (Q86U86)): 0.85 and 0.92 and 0.84
- average ([2]; protein PBRM1 (Q86U86)): 0.95
- log2 ([2]; protein PBRM1 (Q86U86)): -0.07
- Normalised ([2]; protein PBRM1 (Q86U86)): 0.93 and 0.98 and 0.94
- Rel. Int. [2, 4]: 0.93 and 0.92 and 0.88
- average [2, 4]: 1.00
- log2 [2, 4]: -0.00277
- Normalised [2, 4]: 1.02 and 0.98 and 0.99
- Rel. Int. ([2]; protein SMARCA2 (P51531)): 0.90 and 0.92 and 0.88
- average ([2]; protein SMARCA2 (P51531)): 0.99
- log2 ([2]; protein SMARCA2 (P51531)): -0.0184
- Normalised ([2]; protein SMARCA2 (P51531)): 0.99 (2×) and 0.98
